According to publication PMC10428208, “Phototoxicity of Tridentate Ru(II) Polypyridyl Complex with Expanded Bite Angles toward Mammalian Cells and Multicellular Tumor Spheroids” (Inorganic Chemistry, 2023):
Read-outs that look alike come from different tables or passages of the source. Marks after values point to notes of the source that are not given here.

Experiments:
CHO cells [1] = assay: Phototoxicity with dark control plate, 470 nm LED, alamar blue; type: cell-based, Chinese hamster; details: 30 min incubation, 470 nm LED 17 J/cm^2, alamar blue, triplicate, read-out: IC50 under irradiation
Description: (§1) All cell monolayers were prepared as described above for the phototoxicity assay. A549 and CHO cells were treated at varying concentrations of the complexes and incubated for 30 min in the absence of light, HPAC were incubated for 2 h to allow uptake. A 470 nm blue light LED array was used to irradiate the cells in the wells at a total dose of 17 ± 1.64 J/cm^2 (2 h at 2.37 ± 0.23 mW/cm^2). A dark control plate was performed alongside all phototoxicity plates. Irradiation conditions were tested on untreated cells to confirm cells remained viable at this dose before any experiments were performed and each phototoxicity plate included untreated test wells for cell viability comparison. All viability assays were performed in triplicate.
The test solutions were then decanted, and the wells replaced with phenol red free media. The phototoxicity plate was irradiated using a 470 nm LED, corresponding to which is close to the absorbance maximum associated with the ^1MLCT of the complex, total irradiation dose 17 ± 1.64 J/cm^2 (constituting 2 h at 2.37 ± 0.23 mW/cm^2) at 37 °C, and the control plate was maintained under the same conditions in the dark. […]
Similar to the phototoxicity studies in A549 cells, an incubation time of 30 min was selected for CHO cells to allow uptake. […] Cell viability was determined relative to untreated control wells using an alamar blue assay. […]

HPAC spheroids = assay: Uptake in spheroids, confocal imaging; details: 24 h incubation
Description: HPAC cells were seeded in U-bottom 96 well-plates pre-treated with 0.5% polyHEMA [poly(2-hydroxyethyl methacrylate), Sigma in 95% ethanol] at 2 × 10^4 cells per well. The plate was then centrifuged at 700 rpm at 37 °C using a BMG Labtech ClarioStar (plus) plate reader for 10 min. The cells were incubated for 96 h to allow spheroid formation before any dye was added for imaging studies. Ru-bqp-ester, Ru-bqp-MPP, and Ru-bqp-R8 were added to the spheroids at 30 and 100 μM in the 96 well plates and after 24 h incubation, the spheroids were carefully transferred to an 8-chamber slide (ibidi), with a single spheroid per chamber, and directly imaged using a Leica TCS DMi8 confocal microscope (40× oil immersion objective). Hoechst 33342 nuclear stain (1 μg/mL) was added to the spheroids for 45 min as a contrast agent and excited using a 405 nm laser with emission collected between 425 and 475 nm. The Ru(II) complexes were excited using a white light laser at 490 nm and emission collected between 580 and 730 nm. Spheroid images were acquired using z-scanning across the z-axis of the samples. On average, 40–50 images were acquired per z-scan and used to obtain 3D spheroid reconstructions using Leica Application Suite X (LAS X) software.
Confocal fluorescence imaging was performed to determine if the cellular uptake observed in 2D culture extends to 3D models. […]

A549 cells [2] = details: read-out: IC50, dark toxicity; A549, 24 h incubation in the dark, alamar blue added immediately, no recovery, N=3
Description: (§2) The alamar blue assay (Invitrogen) was used to assess the viability of A549, CHO, and HPAC cell monolayers treated with the Ru(II) probes, Ru-bqp-ester, Ru-bqp-MPP, Ru-bqp-R8. CHO, A549, and 2D HPAC cells were seeded in a 96-well plate (Nunc, flat bottom cell culture treated) at 1 × 10^4 cells per well, i.e., in 100 μL media for 24 h at 37 °C with 5% CO2. Ru-bqp-ester, Ru-bqp-R8, and Ru-bqp-MPP were added for 24 h at 37 °C and 5% CO2 in the absence of light. The alamar blue (Resazurin) assay was performed to measure cell viability by replacing the test solution with 100 μL of a 10% v/v media/resazurin solution and incubating for 5 h at 37 °C in the absence of light. Absorbance was measured using a BMG Labtech ClarioStar (plus) plate reader at 570 and 600 nm (corrected for background subtraction). Cell viability is presented as a percentage (%) compared to untreated control wells.
(§3) The alamar blue (Resazurin) assay was used to assess cell viability of CHO, A549, and HPAC cell monolayers after 24 h incubation in the dark with the complexes and conjugates. In the presence of metabolically active cells, the alamar blue dye is reduced to resorufin and changes from navy blue to a pink color depending on the number of viable cells. Thus, this assay can be used as a simple direct indicator of cell viability. […]

HPAC cell monolayers = type: cell-based, human; details: 24 h incubation in the dark, alamar blue added immediately, no recovery, N=3, read-out: IC50, dark toxicity
Description: as §2, §3

HPAC 2D cell monolayers = type: cell-based, human
Description: as §1
(§4) The test solutions were then decanted, and the wells replaced with phenol red free media. The phototoxicity plate was irradiated using a 470 nm LED, corresponding to which is close to the absorbance maximum associated with the ^1MLCT of the complex, total irradiation dose 17 ± 1.64 J/cm^2 (constituting 2 h at 2.37 ± 0.23 mW/cm^2) at 37 °C, and the control plate was maintained under the same conditions in the dark. The cells were then incubated for a further 21.5 h at 37 °C with 5% CO2 to allow for cell recovery. An alamar blue assay was performed to assess cell viability.
The HPAC cells required a longer incubation period of 2 h prior to irradiation to account for slower uptake. […] In summary, Ru-bqp-ester is minimally toxic in the dark but highly phototoxic in all test cells when activated using a 470 nm LED. Furthermore, the peptide conjugates Ru-bqp-R8 and Ru-bqp-MPP show phototoxic potential in cancerous cell lines A549 and HPAC selected for analysis. The increased uptake of the MPP peptide conjugate into the mitochondria, as determined by our co-localization studies, could be linked to the higher phototoxicity of the complex in A549 and HPAC cells and also the increased dark toxicity in HPAC and CHO cell monolayers in comparison to the parent and R8 peptide conjugate.

A549 cells [3] = tested on: A549 cells
Description: as §1
as §4, with “The phototoxicities of the Ru-bqp-ester, Ru-bqp-R8, and Ru-bqp-MPP were next compared across the three cell line monolayers. Two identical plates, a dark control and phototoxicity plate, were prepared and incubated with varying concentrations of Ru-bqp-ester, Ru-bqp-R8, and Ru-bqp-MPP for 30 min or 2 h depending on the cell line. The test” for “The test”
To overcome potential efflux of the complexes from the A549 cells, a shorter complex incubation time of 30 min was selected prior to irradiation.

[4] = tested on: HPAC multicellular spheroids (3D); type: cell-based, human; details: 24 h treatment, 23.5 h recovery, CellTiter-Glo 3D, average of three plates
Description: Spheroid viability was evaluated using a CellTiter-Glo 3D assay. Although the alamar blue assay is a robust and reliable option for 2D cell viability, the CellTiter-Glo 3D assay is specifically designed to penetrate deeper into 3D cell culture and thus offers better specificity for these studies. Cells were seeded in round-bottom 96 well plates at 2 × 10^4 cells per well and grown for 96 h. The cells were treated for 24 h and a media change performed. A 470 nm LED was used to irradiate the spheroids at 4.27 ± 0.41 J/cm^2 (30 min at 2.37 ± 0.23 mW/cm^2) and a dark control plate was performed simultaneously. Irradiation conditions were tested on untreated spheroids to confirm whether viability remained unaffected at this irradiation dosage before any experiments were performed. The spheroids were allowed to recover and the CellTiter-Glo 3D assay was performed to determine cell viability as per the manufacturer’s protocol. Percentage cell viability was determined relative to the untreated control spheroids.
The dark and phototoxicity of the parent and peptide conjugates were also assessed in HPAC spheroids. […] Cell viability was determined using the CellTiter-Glo 3D luminescence-based assay, and viability assays were performed in triplicate. […] As in the 2D alamar blue assay protocol, % viability is calculated relative to untreated control spheroids.

[5] = Photophysical measurements (luminescence lifetime, quantum yield); type: physicochemical
Description: Absorbance measurements of the Ru(II) complexes at 20 μM were performed using a Jasco V670 spectrophotometer. Emission spectra were collected using a Varian Cary Eclipse fluorescence spectrophotometer and luminescent lifetime measurements were performed on a PicoQuant FluoTime 100 FLS TCSPC system using a 450 nm pulsed laser and an external pulse generator. Lifetime decay curves were analyzed using the PicoQuant Fluofit software with fitting criteria; 0.9 < X^2 < 1.1. For O2 sensitivity studies, the emission spectrum and luminescent lifetime of each complex (10 μM) were recorded under O2 saturation, and after N2 purge for 20 min. All measurements were performed in triplicate and reported as the mean ± SD.

[6] = design: method as in doi:10.3390/organoids1020012, PMID 35485712; details: previously published, 298 K, deaerated MeOH/EtOH solution; printed in the MeCN row; cited from earlier work
CHO cells [7] = type: cell-based, Chinese hamster; details: 24 h incubation in the dark, alamar blue added immediately, no recovery, N=3, read-out: IC50, dark toxicity
Description: as §2, §3

HeLa cells = details: irradiation dose of 5 J/cm^2; cited from earlier work
Description: It is important to highlight that a direct comparison between the other reported PIs is difficult to make because of the diversity of conditions used to determine PI values. Because PI is influenced by a range of factors, including the cell type extent of permeability of a given agent and the irradiation dose.[72] […] Based on control studies with untreated CHO, A549, and HPAC cell monolayers, we selecte ...

A549 cell monolayers = tested on: A549 cell monolayers; design: method as in PMID 22553960; details: cited from earlier work
HL60 leukemia cells = tested on: HL60 leukemia cells; design: method as in PMID 22553960; details: cited from earlier work

**Q.** Which IC50 (CHO cells [1]) does the source give for [Ru(bqp)(bqpCOOEt)]^2+ [Ru-bqp-ester] here?
**A.** The IC50 was < 5 µM.

**Q.** And the “uptake in HPAC spheroids” value (HPAC spheroids; 30 μM)?
**A.** Its value is “some uptake”.

**Q.** And the “uptake in HPAC spheroids” value (HPAC spheroids; 100 μM)?
**A.** The value was “complete internalization”.

**Q.** What about the IC50 (A549 cells [2]) of the same compound?
**A.** Its IC50 is > 100 µM.

**Q.** And the IC50 (HPAC cell monolayers)?
**A.** Its IC50 is > 100 µM.

**Q.** What about the IC50 (HPAC 2D cell monolayers; 2 h incubation, 470 nm LED 17 J/cm^2, read-out: IC50 under irradiation, HPAC cells) of the same compound?
**A.** The IC50 was 0.77 ± 0.11 µM.

**Q.** And the IC50 (HPAC 2D cell monolayers; dark control plate, 2 h incubation then recovery in the dark, alamar blue, average of three plates, triplicate per plate, read-out: IC50 dark, HPAC 2D cell monolayers)?
**A.** Its IC50 is 585 ± 6.28 µM.

**Q.** What about the “PI (phototoxic index), HPAC 2D cell monolayers” value (HPAC 2D cell monolayers; ratio of dark to light IC50 values, 17 ± 1.64 J/cm^2 at 470 nm) of the same compound?
**A.** Its value is 760.

**Q.** And the “cell viability, A549 dark control” value (A549 cells [3]; dark control plate, 30 min incubation, up to 100 μM, not graphed)?
**A.** The value was > 80%.

**Q.** What about the “A549 cells dead following photoirradiation” value (A549 cells [3]; dose of <5 μM, 30 min incubation, 470 nm LED 17 J/cm^2) of the same compound?
**A.** The value was “More than 70%”.

**Q.** What about the IC50 (A549 cells [3]; read-out: IC50 under irradiation, A549, 30 min incubation, 470 nm LED 17 ± 1.64 J/cm^2 (2 h), 21.5 h recovery, alamar blue) of the same compound?
**A.** The IC50 was < 5 µM.

**Q.** What about the IC50 ([4]; 470 nm LED 4.27 ± 0.41 J/cm^2 (30 min), read-out: IC50 light, HPAC multicellular spheroids (3D)) of the same compound?
**A.** The IC50 was > 100 µM.

**Q.** And the IC50 ([4]; dark control plate, read-out: IC50 dark, HPAC multicellular spheroids (3D))?
**A.** Its IC50 is > 100 µM.

**Q.** And the τlum aerated ([5]; MeCN, mean ± SD of triplicate)?
**A.** Its τlum aerated is 384 ± 1 ns.

**Q.** What about the τlum aerated ([5]; PBS (pH 7.4), 450 nm pulsed laser, TCSPC, mean ± SD of triplicate) of the same compound?
**A.** Its τlum aerated is 782 ± 18 ns.

**Q.** And the τlum deaerated ([5]; PBS (pH 7.4), deaerated (N2 purge 20 min), mean ± SD of triplicate)?
**A.** Its τlum deaerated is 1320 ± 20 ns.

**Q.** What about the “emission lifetime on deaeration” value ([5]; PBS buffer (pH 7.4), deaerated) of the same compound?
**A.** The value was “over 1.3 μs”.

**Q.** And the emission quantum yield Φ [6]?
**A.** Its emission quantum yield Φ is 4%.

**Q.** What about the τlum deaerated [6] of the same compound?
**A.** Its τlum deaerated is 4300 ^a ns.

**Q.** What about the IC50 (CHO cells [7]) of the same compound?
**A.** Its IC50 is > 100 µM.

**Q.** Which PI (HeLa cells) does the source give for Photofrin here?
**A.** Its PI is > 10.

**Q.** What does the source list for `NCC(=O)CCC(=O)O` [ALA, aminolevulinic acid]?
**A.** PI (A549 cell monolayers): 4.2; PI (HL60 leukemia cells): > 18
